# Reference: a melting point compilation (Tetko et al.)
row,melting point,Structure (SMILES)
1,221 °C,O=C(C1=NOC2C(=O)N(c3cc(Cl)ccc3Cl)C(=O)C12)c1cccs1 (stereo unspecified)
2,39 to 42 °C,N#CSCc1c(Cl)cccc1Cl
3,48 to 50 °C,Cc1ccc(-n2cccc2C=O)cc1
4,91 to 92 °C,Cc1noc(-c2ccccc2CO)n1
5,66 to 70 °C,Cc1nnsc1-c1onc(C)c1C(=O)Cl
6,70 to 73 °C,CCCCCCCCCCCCOc1ccc(C=O)cc1OCCCCCCCCCCCC
7,126 °C,Cn1nc(-c2cc(OCC(=O)O)c(Cl)cc2F)c(Cl)c1OC(F)F
8,78 °C,CC(=O)Nc1ccccc1F
9,-30 °C,CC(CC(C)(C)C1CCCCC1)C1CCCCC1 (stereo unspecified)
10,160 to 161 °C,Cc1ccc(C(=O)O)c(N)c1
11,150 to 153 °C,CCc1cc(C(F)(F)F)c2c([nH]c3ccccc32)c1CO
12,119 °C,Cc1n[nH]c(C)c1Cc1ccccc1
13,52 °C,CCC1(O)c2ccccc2C1C (stereo unspecified)
14,118 °C,CC(=O)N1CCC[C@H]1C(=O)O
15,300 °C,CNC(C)(C)C(=O)O
16,142 °C,CCCN(CCC)C(=O)C(CCC(=O)O)NC(=O)c1ccccc1 (stereo unspecified)
17,100 °C,CC12CCC(C(COC(=O)c3ccc([N+](=O)[O-])cc3)C1)C2(C)C (stereo unspecified)
18,172 °C,Cc1nc(Cl)c(C(N)=O)c(C)c1Cl
19,285 to 288 °C,c1cc2ccc1CCc1ccc(cc1)CC2
20,88 to 89 °C,COC(=O)c1ccc2ncccc2c1
21,115 °C,O=S(=O)(Cl)c1ccc(-c2ccccc2)cc1
22,300 °C,O=C1C(=C2Nc3ccccc3C2=O)Nc2ccccc21
23,73 to 75 °C,Cc1ccc(-c2csnn2)cc1
24,198 °C,CCOC(=O)c1cnc2sc(C(F)(F)F)nn2c1=N
25,62 °C,COC(=O)c1sccc1OC

row,melting point,Structure (SMILES)
1,48 °C,CCN(CC)c1ccc(C(C)=O)cc1
2,200 °C,CN(C)c1ccc(/C=N/n2c(S)nnc2C(F)(F)F)cc1
3,138 to 140 °C,C[Si](c1ccccc1)(c1ccccc1)[Si](C)(c1ccccc1)c1ccccc1
4,32 °C,CCC(=O)c1ccc(F)c(C(F)(F)F)c1
5,133 °C,O=Cc1ccccc1OCC(=O)O
6,161 to 165 °C,Cc1ccc(C=C(Oc2ccccc2)c2nc3ccccc3s2)cc1
7,221 to 222 °C,C/C(=N\Cc1cccnc1)c1c(O)c2ccccc2n(-c2ccccc2)c1=O
8,59 to 61 °C,Clc1ccc(CSSCc2ccc(Cl)cc2)cc1
9,250 to 260 °C,CC(C)[C@H]1NC(=O)CNC1=O
10,99 to 100 °C,O=C(/C=C/OC(=O)c1ccccc1)CCc1ccccc1
11,88 to 89 °C,Cc1cc(C(=O)CCl)c(C)n1-c1ccc(Cl)cc1
12,50.5 °C,CC(C)(C(=O)c1cccnc1)c1cccnc1
13,185 to 189 °C,Cc1cc2nc(N)sc2cc1C
14,-106 °C,CC[Si](Cl)(Cl)Cl
15,32 °C,O=C1OC(=O)C2CCCCC12 (stereo unspecified)
16,62 to 66 °C,OCC[C@@H](O)c1ccccc1
17,115 °C,O=C(O)C(O)c1ccccc1F (stereo unspecified)
18,146 to 147 °C,CCOC(=O)c1[nH]c(C)c(C(C)=O)c1C
19,-74.6 °C,CC(C)CCSCCC(C)C
20,55 to 60 °C,OCc1cccc(OCCN2CCOCC2)c1
21,138 °C,O=C(O)Cc1ccc(I)cc1
22,243 °C,O=C(NNC(=S)NCc1ccccc1)C(=O)c1c[nH]c2ccccc12
23,165 to 167 °C,c1ccc(C/C(=N\Nc2ccccc2)c2ccc3ccccc3c2)cc1
24,205 °C,CN(C)NN=C1N=CN=C1C(N)=O
25,39 to 44 °C,C(=Cc1ccccc1)CN1CCNCC1

row,melting point,Structure (SMILES)
1,74 °C,Nc1ccc(Nc2ccccc2)cc1
2,122 °C,CC(C)=CCCC(C)C1CCC2C3CC=C4CC(O)CCC4(C)C3CCC12C (stereo unspecified)
3,147 to 150 °C,CC(=O)C1C(=O)c2cccc([N+](=O)[O-])c2C1=O (stereo unspecified)
4,-3 °C,C[Si]1(C)O[Si](C)(C)O[Si](C)(C)O[Si](C)(C)O[Si](C)(C)O[Si](C)(C)O1
5,-24 °C,Fc1c(F)c(F)c(S)c(F)c1F
6,63 to 63.6 °C,CC1=C(C#N)Cc2ccccc21
7,199 °C,Nc1cc2ccccc2cc1N
8,-10 °C,Cc1ccc(C(C)(C)C)cc1S
9,127 °C,Cc1ccc(S(=O)(=O)c2ccccc2)cc1
10,64 °C,CC1CCC(C(C)C)C(OC(=O)C#Cc2ccccc2)C1 (stereo unspecified)
11,235 °C,CC(=O)N(Nc1ccccc1)c1ccc(-c2ccc(N(Nc3ccccc3)C(C)=O)cc2)cc1
12,72 °C,OCc1cccc2nonc12
13,116 to 118 °C,COC(=O)CCC(C)C1CCC2C3CCC4CC(=O)CCC4(C)C3CCC12C (stereo unspecified)
14,260 to 262 °C,O=C(O)c1cnn(-c2ccc([N+](=O)[O-])cc2[N+](=O)[O-])c1
15,41 °C,CCCCCCCCCCCCCCCCOC(=O)C(C)O (stereo unspecified)
16,52 to 54 °C,CC[C@H](C)[C@H](NC(=O)OCc1ccccc1)C(=O)O
17,191 to 192 °C,CC1OC(Oc2ccc([N+](=O)[O-])cc2)C(O)C(O)C1O (stereo unspecified)
18,72 °C,COc1ccc(S(=O)(=O)Cl)c(OC)c1
19,167 to 170 °C,NNC(=S)Nc1ccc(OCc2ccccc2)cc1
20,222 to 226 °C,Nc1ncc(S(=O)(=O)c2ccc([N+](=O)[O-])cc2)s1
21,78.5 °C,Cc1cc(C)c(CC#N)c(C)c1
22,241 °C,O=C(O)c1ccc(NC(=O)C(Cc2ccc(O)cc2)NC(=O)c2ccccc2)cc1 (stereo unspecified)
23,92 to 100 °C,"O=C1NC2C=CC1C2 (single isomer, unassigned; (-))"
24,177 to 178 °C,CC(=O)OC1C2=C(C(=O)C(O)C3(CC3C)C2=O)C2(C)CCC(C)=C(C)C2C1O (stereo unspecified)

row,Structure (SMILES),melting point
1,Cc1cc(-c2cc(C)c(N)c(C)c2)cc(C)c1N,170 °C
2,CCCCC(=O)Cl,-110 °C
3,ClC1=C(Cl)C2(Cl)C3C4OC4(Cl)C(Cl)C3C1(Cl)C2(Cl)Cl (stereo unspecified),144 °C
4,O=C(O)C(Br)Br,49 °C
5,Clc1cc2c(cc1Cl)Oc1ccccc1O2,163 °C
6,O=C(O)COc1nc(Cl)c(Cl)cc1Cl,150 °C
7,CN1CCc2cc(O)c(O)cc2C1,255 °C
8,O=C(c1ccccc1)c1c(-c2ccccc2)n(C(=O)c2ccccc2)c2cc([N+](=O)[O-])ccc12,204 °C
9,O=C(O)CCP(=O)(O)O,165 to 166 °C
10,COc1ccc(C2=CCC3(C)C(CCC4C5CCC(O)C5(C)CCC43)C2)cc1 (stereo unspecified),163 to 169 °C
11,c1ccc2c(c1)ccc1ncccc12,94 °C
12,CC(=O)Nc1ccc([N+](=O)[O-])c(Br)c1,145 °C
13,O=[N+]([O-])c1cc(I)cc([N+](=O)[O-])c1,101 °C
14,CCc1cccc(C)c1N(C(=O)CCl)C(C)COC (stereo unspecified),-40 °C
15,N#CC1(O)CCCCC1,35 °C
16,CCOP(=S)(OCC)Oc1ccc2c3c(c(=O)oc2c1)CCCC3,88.2 °C
17,CC(C)COC(=O)c1ccccc1C(=O)OCC(C)C,-64 °C
